From article PMC4444023 (PLoS ONE, 2015)
“And” between values parts separate entries of the source, which are not always exact repeats. Identical values can stand only once. “Also recorded” adds a separate entry of the source. Blank lines part the entries; values can stand above or below the molecule they belong to.

Legend:
nSMase = target: nSMase; parameters: method as in PMID 21615386, PMID 17049336; details: cited from earlier work; for IC50: Enzyme source: Rat brain
human nSMase2 [1] = target: T1, human nSMase2 (Homo sapiens, UniProt Q9NY59); test: Fluorescence (Amplex red coupled) nSMase2 activity assay; format: biochemical; parameters: Full length human nSMase2 cDNA with a C-terminal Flag tag; crude cell lysate used as enzyme
T1 sequence (Q9NY59 1-655): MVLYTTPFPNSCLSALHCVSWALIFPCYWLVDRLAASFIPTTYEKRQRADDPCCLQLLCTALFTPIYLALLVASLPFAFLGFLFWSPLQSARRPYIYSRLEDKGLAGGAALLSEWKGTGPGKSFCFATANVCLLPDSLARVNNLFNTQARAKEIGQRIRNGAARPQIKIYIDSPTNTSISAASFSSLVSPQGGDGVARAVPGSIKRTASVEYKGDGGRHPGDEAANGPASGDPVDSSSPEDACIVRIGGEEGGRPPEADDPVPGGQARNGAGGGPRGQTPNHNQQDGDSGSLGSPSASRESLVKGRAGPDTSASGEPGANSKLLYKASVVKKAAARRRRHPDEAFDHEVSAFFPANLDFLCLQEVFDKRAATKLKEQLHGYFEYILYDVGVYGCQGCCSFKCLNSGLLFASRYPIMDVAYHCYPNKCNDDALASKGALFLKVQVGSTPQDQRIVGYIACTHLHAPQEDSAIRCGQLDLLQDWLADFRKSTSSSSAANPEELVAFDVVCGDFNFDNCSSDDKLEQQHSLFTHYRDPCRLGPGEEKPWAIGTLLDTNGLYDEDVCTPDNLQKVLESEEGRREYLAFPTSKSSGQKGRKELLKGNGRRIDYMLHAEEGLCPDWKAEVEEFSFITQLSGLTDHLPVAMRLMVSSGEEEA
Experimental: The production of the latter was coupled to a dephosphorylation reaction catalyzed by alkaline phosphatase (4 U/ml) to produce choline, followed by oxidation of choline by choline oxidase (0.1 U/ml) to produce betaine and H2O2, which in the presence of horseradish peroxidase (HRP, 1U/ml) and 50 μM Amplex red, generates the fluorescent molecule resorufin (Life Technologies). Substrate stock solution was prepared in 2% Triton X-100, vortexed and sonicated for 30 min. Reactions were carried out for 1 h at 37°C in 100 mM Tris-HCl pH 7.4, 10 mM MgCl2, 0.2% Triton X-100 and the generation of the fluorescent product was monitored by measuring relative florescence units (RFU) with excitation at 530 nm and emission at 590 nm (Fig 1). This assay was optimized for 384-well format (50 μl total volume per well) based on linearity of the enzymatic activity with respect to time, as well as substrate and enzyme concentrations. […] This fluorescence assay was used for compound screening and IC50 value determinations, based on duplicate eight-point dose response curves.

human nSMase2 [2] = target: T1, human nSMase2; test: 14C-SM confirmatory direct activity assay; format: biochemical; parameters: Full length human nSMase2 cDNA with a C-terminal Flag tag; host or cells: HEK293, stably transfected; crude cell lysate used as enzyme; details: for human nSMase2 inhibitory activity of analog vs cambinol: SAR; for IC50: [14C]-SM direct activity assay, human recombinant enzyme
Experimental: This assay was dependent on the direct hydrolysis of ^14C-labeled SM (^14C N-methyl groups in the phosphorylcholine) by human nSMase2. Optimization of assay conditions was accomplished according to the methods of Barbone et al.. Briefly, bovine [N-methyl-^14C]-sphingomyelin (specific activity […], Perkin Elmer) and phosphatidylinositol (Avanti Polar Lipids) were evaporated to dryness under a stream of nitrogen and resuspended at an equimolar concentration of 0.1 mM in water with 0.5% Triton X-100 (Sigma). The solution was vortexed for 30 min and then sonicated for 30 min. Assay conditions were as follows: 50 μl total volume per reaction, consisting of 20 μM SM, reaction buffer (100 mM Tris-HCl pH 7.5, 80 mM MgCl2, 0.1% Triton X-100); 10 μl cell lysate containing recombinant human nSMase2 (0.5–1 μg protein/assay) and 5 μl of compound in reaction buffer containing 10% DMSO. After 1 h incubation at 37°C the reaction was terminated by the addition of 30 μl of water and 175 μl of chloroform/methanol (2:1, v:v), followed by vigorous vortexing. Tubes were centrifuged for 5 min at 10,000 xg at room temperature to separate the organic bottom phase containing labeled SM and the aqueous upper phase containing ^14C-labeled-phosphorylcholine. An aliquot (50 μl) of the upper phase was transferred to a vial with 10 ml of scintillant and counted for 2 min on a Beckman LS-6000IC scintillation counter. Enzyme activity was directly proportional to the disintegrations per min (dpm) resulting from the generation of ^14C-phosphorylcholine.

[3] = system: rat primary hippocampal neurons; test: Hippocampal neuronal survival (Hoechst 33342); format: cell-based
Experimental: All animal procedures were approved by the Johns Hopkins University Animal Care and Use Committee. Primary hippocampal neurons were prepared from day 18 decapitated embryos of Sprague-Dawley rats following previously described methods. Cells were seeded on polyethyleneimine (PEI)-coated slides in 12-well plates and cultured between 14–21 days. […] After 18 h, cells were stained with 50 μg/ml Hoeschst 33342 for 20 min and then fixed with 4% paraformaldehyde for 30 min. The number of living and apoptotic cells was determined by fluorescence microscopy. A minimum of 500 cells were counted per treatment condition. Results were normalized to control untreated cells and were representative of at least two independent experiments conducted in triplicate. Statistical evaluation of the data was done by Student’s t-test.

SMILES: COc1cc(O)c(C(=O)O)c(-c2cc(O)c(O)cc2C)c1 [Altenusin, reference compound]
IC50 (nSMase): 28 µM
MOI (nSMase): Non- competitive
modulation of enzymatic activity (Fig 3C raw data) (human nSMase2 [1]; 100 µM): 75.4 RFU and 73.8 RFU and 72.1 RFU and 74.7 RFU
inhibition of human nSMase2 activity (human nSMase2 [1]; 150 μM GW4869, 100 μM manumycin A, altenusin, zoledronic acid): possible to inhibit enzyme activity; also recorded: inhibition

inhibition of human nSMase2 activity (human nSMase2 [1]; DMSO up to 1%): no significant inhibition
SMILES: C[S+](C)[O-] [DMSO]
human nSMase2 activity (human nSMase2 [1]; 0.1% DMSO): 2703.2500 RFU and 2871.2510 RFU and 2454.0980 RFU and 2595.8260 RFU
human nSMase2 activity (human nSMase2 [1]; 1% DMSO): 2256.2870 RFU and 2299.5150 RFU and 2360.8330 RFU and 2629.8220 RFU
human nSMase2 activity (human nSMase2 [1]; 10% DMSO): 1706.1510 RFU and 1610.6720 RFU and 1424.4530 RFU and 1442.3390 RFU

SMILES: CC1CC2C(C=CC3CC(O)CC4CC(=O)C(=CC32)C(=O)O4)C1=O (stereo not drawn) [Macquarimicin A]
IC50 (nSMase): 145 µM
MOI (nSMase): Non- competitive

SMILES: CC[C@@H](C)/C=C(\C)C[C@@H](C)C[C@@H](C)/C=C/C=C/C=C/C(=O)N[C@H](CO)C[C@@]1(O)C(=O)C=C[C@@H]2O[C@@H]21 [Scyphostatin]
MOI (nSMase): Competitive

%Inhibition (human nSMase2 [2]; Log [compound] -4.0): -11.0% and -13.0%
%Inhibition (human nSMase2 [2]; Log [compound] -5.0): -11.0% and -12.0%
%Inhibition (human nSMase2 [2]; Log [compound] -6.0): -2.0% and -3.0%
%Inhibition (human nSMase2 [2]; Log [compound] -7.0): 3.0% and 0.0%
%Inhibition (human nSMase2 [2]; Log [compound] -9.0): 4.0%
%Inhibition (human nSMase2 [2]; Log [compound] -10.0): -1.0% and -2.0%
human nSMase2 inhibitory activity of analog vs cambinol (human nSMase2 [2]): loss of activity
IC50 (human nSMase2 [2]): > 100 µM
SMILES: O=c1[nH]c(-c2ccccc2)c(Cc2c(O)ccc3ccccc23)c(=O)[nH]1 [compound 2]
neuron survival, Mean (normalized to control untreated cells) ([3]; 100 ng/ml IL1β 18 h, 10 µM compound): 79.08
neuron survival, Mean (normalized to control untreated cells) ([3]; 100 ng/ml IL1β 18 h, 25 µM compound): 81.7
neuron survival, Mean (normalized to control untreated cells) ([3]; 100 ng/ml TNFα 18 h, 10 µM compound): 76.55
neuron survival, Mean (normalized to control untreated cells) ([3]; 100 ng/ml TNFα 18 h, 25 µM compound): 81.8

human nSMase2 inhibitory activity of analog vs cambinol (human nSMase2 [2]): loss of activity
IC50 (human nSMase2 [2]): > 50 µM
SMILES: O=c1nc(SCc2ccccc2)[nH]c(-c2ccccc2)c1Cc1c(O)ccc2ccccc12 [compound 3]

IC50 (human nSMase2 [2]): > 50 µM
increase in IC50 value (human nSMase2 [2]; vs cambinol): 10 fold
SMILES: O=c1cc(-c2ccccc2)[nH]c(=S)[nH]1 [compound 5]
